Source: patent US20240067603A1, “CUBANYL BIGUANIDE COMPOUNDS” (REGENTS OF THE UNIVERSITY OF MINNESOTA, priority 2020, published 2024)
Where two headings read alike, the source gives them in different places.

Assays:
breast cancer cell lines = details: background statement; read-out: IC50, growth of breast cancer cell lines; cited from earlier work
EO771 = assay: Inhibition of mammary carcinoma cell line EO771; format: cell-based, mouse (C57BL/6); details: Mus musculus; Table 5; EO771, C57BL/6, Basal, HER2−
Protocol: 3-(4,5-Dimethylthiazol-2-yl)-2,5-diphenyltetrazolium Bromide (MTT) Cell Proliferation Assay. To cells grown in 96-well-tissue culture plate, 20 μl/well of MTT solution (5 mg/ml in PBS) was added. After 1-2 hours incubation at 37° C., the plate was centrifuged. Supernatant was discarded and 100 μl DMSO was added to dissolve water insoluble formazan, and the absorbance was read at 540 nm with a plate reader.

CYP3A4 = CYP3A4 (Homo sapiens, UniProt P08684); assay: CYP3A4 Supersome mediated EET biosynthesis; format: biochemical; design: purchased Corning; host or cells: insect cells (microsomes)
Protocol: FIG. 1. Effects of HCB on CYP3A4 Supersome™ mediated EET biosynthesis. A 50 ul reaction in a 1.5 ml microcentrifuge tube contains the following components: arachidonic acid (60 μM), NDAPH (2 mM), DMSO or drug, CYP3A4 Supersome™ (1 μM) in potassium phosphate buffer (pH=7.4). The reaction was initiated by the addition of Supersome™ to the reaction mixture. After incubation at 37° C. for 30 minutes, 50 ul of acetonitrile spiked with 13C-EET internal standards was added and vortexed vigorously to terminate the reaction. Microcentrifuge tubes were centrifuged at 16,000×rpm for 10 min to precipitate proteins and other insoluble debris and 80 ul supernatant was transferred into HPLC vials and analyzed by an LC-MS as described previously (1). Results are expressed as mean±S.D. (n=3).
FIG. 2. Effects of DCB and HCB on CYP3A4 Supersome™ mediated EET biosynthesis. A 0.5 ml reaction in a 10 ml glass test tube contains the following components: arachidonic acid ([…]), NDAPH (2 mM), DMSO or drug solution (0.5 μl), CYP3A4 Supersome™ (80 nM) and 450.5 ul potassium phosphate buffer (pH=7.4). The reaction was initiated by the addition of Supersome™ to the rest. After incubation at 37° C. for 30 minutes, 0.5 ml of dichloromethane was added and vortexed vigorously to terminate the reaction. Organic phase and aqueous phase were separated by centrifugation at 3,000×rpm for 10 minutes. Two hundred microliters of the organic phase was withdrawn and evaporated to dryness. The residues were reconstituted with 20 ul methanol containing ^13C-EET internal standards and analyzed by an LC-MS as described previously (1). Results are expressed as mean±S.D. (n=3, * indicates a statistically significant difference from the control).
Recombinant Microsomal CYP-mediated EET Biosynthesis. CYP Supersomes™ (Corning, NY) (1 μM, final concentration) were incubated at 37° C. for 30 min in the presence of AA (120 μM) in 50 μl potassium phosphate buffer, (50 mM, pH 7.4), containing 1 mM EDTA and 1 mM NADPH. Reactions were terminated by addition of 50 μL of acetonitrile spiked with ^13C-EET internal standards followed by vigorous vortexing. After centrifugation at 16,000×rpm for 10 minutes to precipitate proteins and other insoluble debris and 80 μL supernatant was transferred into HPLC vials and analyzed by with an LC-ESI/MRM/MS method.
LC-ESI/MRM/MS Method for EET Measurement. EETs were measured by an LC-ESI/MRM/MS analytical method on a ThermoFisher Vantage triple quadrupole mass spectrometer (ThermoFisher, San Jose, CA) coupled with an UltiMate 3000 HPLC (ThermoFisher, San Jose, CA), using argon as the collision gas. Negative ion monitoring was performed at the following diagnostic product ions: 319 m/z→155 m/z for 8,9-EET; 319 m/z→179 m/z for 11,12-EET; 319 m/z→219 m/z for 14,15-EET; 339 m/z→163 m/z for 8,9-[^13C-20]EET; 339 m/z→233 m/z for 11,12-[^13C-20]EET; and 339 m/z→259 m/z for 14,15-[^13C-20]EET. Base-line resolution of EET regioisomers was achieved on a Phenomenex Luna C18 (2) reverse phase capillary column (250×0.5 mm, 5-μm particles) using the following mobile phase combinations: isocratic 5% B for 5 min, gradient 5-70% B for 5 min, hold at 70% for 30 min and then 95% for 10 min; A: 0.01% acetic acid in water, B: 0.01% acetic acid in acetonitrile; 10 μl/min flow rate. A standard curve was obtained by linear regression of the peak area ratio of authentic EET regioisomers against internal standards. The amount of EETs in samples was calculated according to the standard curve.

CYP2C8 = molecular target: T1, CYP2C8 (Homo sapiens, UniProt P10632); assay: Stability with recombinant human CYP2C8; format: in vitro ADME; details: 10 μM HCB, recombinant human CYP2C8, NADPH 2 mM
T1 construct: purchased Corning; host or cells: insect cells (microsomes)
T1 sequence (P10632 1-490): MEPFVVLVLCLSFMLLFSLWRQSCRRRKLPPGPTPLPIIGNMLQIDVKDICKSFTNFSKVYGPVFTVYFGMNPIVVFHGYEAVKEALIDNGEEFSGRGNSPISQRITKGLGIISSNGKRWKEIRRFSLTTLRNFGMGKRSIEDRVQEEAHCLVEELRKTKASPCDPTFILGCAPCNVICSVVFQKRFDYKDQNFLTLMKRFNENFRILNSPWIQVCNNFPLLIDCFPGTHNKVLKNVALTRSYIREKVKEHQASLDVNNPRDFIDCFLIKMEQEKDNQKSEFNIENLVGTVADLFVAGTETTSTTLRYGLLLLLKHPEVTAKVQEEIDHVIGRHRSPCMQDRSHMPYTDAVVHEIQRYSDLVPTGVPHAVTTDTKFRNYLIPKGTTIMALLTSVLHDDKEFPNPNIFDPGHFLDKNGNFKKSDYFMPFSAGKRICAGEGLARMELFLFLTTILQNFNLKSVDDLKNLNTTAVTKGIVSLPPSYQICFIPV
Protocol: Stability of HCB with recombinant human CYP3A4 and CYP2C8 enzymes was evaluated. 10 μM HCB was tested wich CYP3A4 and 2C8 (200 pmol/L) (Table 8). NADPH (2 mM) was added as a cofactor. Total volume was 200 μL.
HCB was incubated for 0, 30, or 60 min at 37° C. Incubations were quenched with 2 volumes of acetonitrile followed by centrifugation for 10 min at 16,000 g.

Sequence of CYP3A4 (P08684 whole entry): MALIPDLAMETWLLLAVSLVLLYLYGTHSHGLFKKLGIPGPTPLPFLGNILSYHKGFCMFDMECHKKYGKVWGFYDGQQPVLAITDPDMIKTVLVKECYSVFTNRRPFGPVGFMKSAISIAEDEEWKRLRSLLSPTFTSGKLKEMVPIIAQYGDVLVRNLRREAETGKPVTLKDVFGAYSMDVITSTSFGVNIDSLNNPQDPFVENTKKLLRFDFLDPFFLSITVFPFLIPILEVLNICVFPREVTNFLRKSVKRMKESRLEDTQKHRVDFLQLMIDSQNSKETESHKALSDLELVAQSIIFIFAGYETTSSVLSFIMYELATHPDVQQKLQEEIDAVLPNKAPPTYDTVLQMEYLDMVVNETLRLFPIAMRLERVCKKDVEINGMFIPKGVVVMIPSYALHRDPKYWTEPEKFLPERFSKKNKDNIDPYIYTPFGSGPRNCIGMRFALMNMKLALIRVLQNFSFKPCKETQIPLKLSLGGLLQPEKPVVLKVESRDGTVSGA

SMILES	IC50 (breast cancer cell lines) [µM]	IC50 (EO771) [µM]	IC50 (CYP3A4; (±)8,9-EET, Example B text, read-out: IC50, CYP3A4 biosynthesis of (±)8,9-EET) [µM]	IC50 (CYP3A4; (±)11,12-EET, Example B text, read-out: IC50, CYP3A4 biosynthesis of (±)11,12-EET) [µM]	IC50 (CYP3A4; (±)14,15-EET, Example B text, read-out: IC50, CYP3A4-mediated biosynthesis of (±)14,15-EET) [µM]	Ki (CYP3A4; (±)-14,15-EET, read-out: Ki, inhibition of biosynthesis of (±)-14,15-EET) [µM]	IC50 (CYP3A4; FIG. 1, (±)8,9-EET, curve fitting, read-out: IC50 for (±)8,9-EET biosynthesis) [µM]	IC50 (CYP3A4; FIG. 1, (±)11,12-EET, curve fitting, read-out: IC50 for (±)11,12-EET biosynthesis) [µM]	IC50 (CYP3A4; FIG. 1, (±)14,15-EET, arachidonic acid 60 μM, CYP3A4 Supersome 1 μM, 30 min, curve fitting, read-out: IC50 for (±)14,15-EET biosynthesis) [µM]	fold more potent than HBB for inhibiting biosynthesis of (±)14,15-EET (CYP3A4; HCB vs HBB, CYP3A4) [fold]	parent metabolite peak area after 60 min (CYP2C8) [%]
CCCCCCNC(=N)NC(=N)NCc1ccccc1 [HBB, N1-hexyl-N5-benzyl-biguanide]	3 to 30	21.7									
CCCCCCNC(=N)NC(=N)NCC12C3C4C5C3C1C5C42 (centres unmarked) [HCB, Hexyl Cubanomethyl Biguanide]			28	56	3.8	4.7	64.8 ± 6.5	26.5 ± 1.9	4.7 ± 0.2	~2.5	99.78
